Source: paper PMC10184313, “Inhibition of Thiamine Diphosphate-Dependent Enzymes by Triazole-Based Thiamine Analogues” (ACS Medicinal Chemistry Letters, 2023)
Like-named read-outs stand apart in the source and are kept apart here.

What was measured:
E. coli OGDHc E1 = target: T1, E. coli OGDHc E1 (Escherichia coli, UniProt P0AFG3); experiment: E. coli OGDHc E1 inhibitory activity assay (DCPIP reduction); assay type: biochemical
T1 sequence (P0AFG3 1-933): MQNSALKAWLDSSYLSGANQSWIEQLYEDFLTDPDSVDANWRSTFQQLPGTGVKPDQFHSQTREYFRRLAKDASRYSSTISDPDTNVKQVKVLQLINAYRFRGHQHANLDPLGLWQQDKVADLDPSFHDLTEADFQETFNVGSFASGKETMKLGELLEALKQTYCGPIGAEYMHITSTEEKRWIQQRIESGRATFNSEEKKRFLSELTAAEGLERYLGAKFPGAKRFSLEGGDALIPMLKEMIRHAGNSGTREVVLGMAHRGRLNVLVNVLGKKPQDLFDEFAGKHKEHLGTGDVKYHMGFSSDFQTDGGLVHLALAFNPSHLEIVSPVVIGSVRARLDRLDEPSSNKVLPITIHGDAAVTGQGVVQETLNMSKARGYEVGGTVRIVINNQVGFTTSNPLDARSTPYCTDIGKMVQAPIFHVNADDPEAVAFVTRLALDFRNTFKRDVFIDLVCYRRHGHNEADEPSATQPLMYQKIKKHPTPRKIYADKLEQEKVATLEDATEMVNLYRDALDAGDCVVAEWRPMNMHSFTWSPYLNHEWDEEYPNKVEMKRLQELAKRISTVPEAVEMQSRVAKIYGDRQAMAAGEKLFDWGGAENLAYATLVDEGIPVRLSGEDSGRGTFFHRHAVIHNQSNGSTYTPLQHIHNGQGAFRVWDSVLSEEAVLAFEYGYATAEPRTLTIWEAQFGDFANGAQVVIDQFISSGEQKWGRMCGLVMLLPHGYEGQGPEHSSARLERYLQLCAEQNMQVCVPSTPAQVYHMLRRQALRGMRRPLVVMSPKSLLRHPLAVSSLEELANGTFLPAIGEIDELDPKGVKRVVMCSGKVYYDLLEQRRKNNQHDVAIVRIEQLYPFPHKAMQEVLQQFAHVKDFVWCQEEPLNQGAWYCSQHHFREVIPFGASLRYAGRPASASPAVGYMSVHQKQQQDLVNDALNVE
Method: E. coli OGDHc E1 inhibitory activity assay. E. coli OGDHc E1 was from our previous work 5 and had been donated by R. Frank. Its activity was determined by monitoring DCPIP reduction at 600 nm using a microplate reader (CLARIOstar) and conducted as described 1,2 with some modifications. The percentage inhibition of compounds against E. coli OGDHc E1 was assayed at a final concentration of 250 µM. The reaction buffer (50 mM KH 2PO4 and 2 mM MgCl 2, pH 7) contained 50 µM ThDP (or 125 µM in the competition assay), 0.5 mM DCPIP, and 6.7 mg/ml E. coli OGDHc E1. The reaction mixture was preincubated at 37 °C for 60 min, then reaction was initiated by adding α-ketoglutarate to a final concentration of 10 mM. To determine the IC 50, ThDP concentration was lowered to 30 µM, and inhibitor concentration was varied (2-1000 µM). Specific activity was calculated using the molar […]
for the PDHc E1 assay. […] 5 […]

S. cerevisiae PDC = target: T2, S. cerevisiae PDC (Saccharomyces cerevisiae, UniProt P06169); experiment: S. cerevisiae PDC inhibitory activity assay (DCPIP reduction); assay type: biochemical; conditions: compounds insufficiently soluble were excluded; for inhibition at 1500 µM: read-out: Inhibition (%) Yeast PDC
T2 construct: purchased Sigma
T2 sequence (P06169 2-563 limits assumed): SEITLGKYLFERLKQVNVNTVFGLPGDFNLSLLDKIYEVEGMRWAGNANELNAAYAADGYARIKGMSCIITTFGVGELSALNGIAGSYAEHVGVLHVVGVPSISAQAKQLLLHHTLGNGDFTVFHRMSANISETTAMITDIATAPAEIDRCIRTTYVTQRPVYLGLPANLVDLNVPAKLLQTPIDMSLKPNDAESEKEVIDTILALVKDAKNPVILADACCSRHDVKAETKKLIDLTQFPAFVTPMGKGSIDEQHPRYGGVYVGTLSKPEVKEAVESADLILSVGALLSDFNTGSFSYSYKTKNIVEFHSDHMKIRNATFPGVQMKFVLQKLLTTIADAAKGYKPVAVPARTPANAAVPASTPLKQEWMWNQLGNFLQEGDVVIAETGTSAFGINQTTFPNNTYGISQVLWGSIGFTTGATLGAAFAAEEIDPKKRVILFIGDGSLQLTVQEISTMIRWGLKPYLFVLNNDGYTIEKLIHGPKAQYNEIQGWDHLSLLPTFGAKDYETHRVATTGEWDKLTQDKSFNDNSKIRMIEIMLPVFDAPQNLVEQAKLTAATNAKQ
Method: S. cerevisiae PDC inhibitory activity assay. S. cerevisiae PDC was purchased from Sigma. Its activity was determined by monitoring DCPIP reduction at 600 nm using a microplate reader (CLARIOstar) and conducted as described 1,2 with some modifications. The percentage inhibition of compounds was assayed at a final concentration of 1500 µM. The reaction buffer (50 mM KH 2PO4 and 1 mM MgCl 2, pH 7) contained 300 µM ThDP (or 750 µM in the competition assay), 0.27 mM DCPIP, and 0.15 mg/ml S. cerevisiae PDC. The reaction mixture was preincubated at 37 °C for 60 min, then reaction was initiated by adding pyruvate to a final concentration of 70 mM. Specific activity was calculated using the molar extinction coefficient of DCPIP, 21 mM -1 cm -1.3 […]

[1] = [Compound] = 250 μM, [ThDP] = 50 μM
[2] = [Compound] = 1.5 mM, [ThDP] = 0.3 mM
[3] = increased ThDP: [Compound] = 250 μM, [ThDP] = 125 μM
[4] = increased ThDP: [Compound] = 1500 μM, [ThDP] = 750 μM

Structure (SMILES)	inhibition at 250 µM (E. coli OGDHc E1; [1]) [%]	inhibition at 1500 µM (S. cerevisiae PDC; [2]) [%]	Inhibition (%) Yeast PDC (S. cerevisiae PDC; [2])	inhibition at 250 µM (E. coli OGDHc E1; [3]) [%]	Inhibition (%) Yeast PDC (S. cerevisiae PDC; [4])	IC50 (E. coli OGDHc E1; [ThDP] 30 μM) [µM]	Ki (E. coli OGDHc E1; determined according to the KM for ThDP) [µM]	inhibition at 1500 µM (S. cerevisiae PDC; [4]) [%]
Cc1ncc(Cn2cc(CCO)nn2)c(N)n1 [Compound 9a]	57 ± 4	37 ± 3						
Cc1ncc(Cn2cc(CCCO)nn2)c(N)n1 [Compound 9b]	50 ± 3	35 ± 2						
Cc1ncc(Cn2cc(CCCCO)nn2)c(N)n1 [Compound 9c]	51 ± 2	33 ± 4						
Cc1ncc(Cn2cc(CCOC(=O)c3cccc(-c4noc(C(F)(F)F)n4)c3)nn2)c(N)n1 [Compound 13a]	< 20		Insoluble					
Cc1ncc(Cn2cc(CCOC(=O)c3cccc(C#N)c3)nn2)c(N)n1 [Compound 14a]	< 20		Insoluble					
Cc1ncc(Cn2cc(CCn3cc(-c4ccccc4)nn3)nn2)c(N)n1 [Compound 15a]	23 ± 3		Insoluble	< 20	Insoluble			
Cc1ncc(Cn2cc(CCCn3cc(-c4ccccc4)nn3)nn2)c(N)n1 [Compound 15b]	< 20		Insoluble	< 20	Insoluble			
Cc1ncc(Cn2cc(CCCCn3cc(-c4ccccc4)nn3)nn2)c(N)n1 [Compound 15c]	< 20		Insoluble	< 20	Insoluble			
Cc1ncc(Cn2cc(CCn3cc(-c4ccc(F)cc4)nn3)nn2)c(N)n1 [Compound 16a]	25 ± 4		Insoluble	< 20	Insoluble			
Cc1ncc(Cn2cc(CCCn3cc(-c4ccc(F)cc4)nn3)nn2)c(N)n1 [Compound 16b]	< 20		Insoluble	< 20	Insoluble			
Cc1ncc(Cn2cc(CCCCn3cc(-c4ccc(F)cc4)nn3)nn2)c(N)n1 [Compound 16c]	< 20		Insoluble	< 20	Insoluble			
COc1ccc(-c2cn(CCc3cn(Cc4cnc(C)nc4N)nn3)nn2)cc1 [Compound 17a]	21 ± 3		Insoluble	< 20	Insoluble			
COc1ccc(-c2cn(CCCc3cn(Cc4cnc(C)nc4N)nn3)nn2)cc1 [Compound 17b]	< 20		Insoluble	< 20	Insoluble			
COc1ccc(-c2cn(CCCCc3cn(Cc4cnc(C)nc4N)nn3)nn2)cc1 [Compound 17c]	< 20		Insoluble	< 20	Insoluble			
Cc1ncc(Cn2cc(CCNS(=O)(=O)C(F)(F)F)nn2)c(N)n1 [Compound 18a]	48 ± 2	< 20						
Cc1ncc(Cn2cc(CCCNS(=O)(=O)C(F)(F)F)nn2)c(N)n1 [Compound 18b]	42 ± 3	37 ± 4						
Cc1ncc(Cn2cc(CCCCNS(=O)(=O)C(F)(F)F)nn2)c(N)n1 [Compound 18c]	58 ± 4		Insoluble					
Cc1ncc(Cn2cc(CCNC(=O)c3cccc(-c4noc(C(F)(F)F)n4)c3)nn2)c(N)n1 [Compound 19a]	< 20		Insoluble					
Cc1ncc(Cn2cc(CCNC(=O)c3cccc(C#N)c3)nn2)c(N)n1 [Compound 20a]	< 20	< 20						
COc1cccc(C(=O)NCCc2cn(Cc3cnc(C)nc3N)nn2)c1 [Compound 21a]	63 ± 3	48 ± 2						
COc1cccc(C(=O)NCCCc2cn(Cc3cnc(C)nc3N)nn2)c1 [Compound 21b]	58 ± 5	38 ± 5						
COc1cccc(C(=O)NCCCCc2cn(Cc3cnc(C)nc3N)nn2)c1 [Compound 21c]	25 ± 3		Insoluble					
COc1ccccc1C(=O)NCCc1cn(Cc2cnc(C)nc2N)nn1 [Compound 22a]	80 ± 4	61 ± 4						
COc1ccccc1C(=O)NCCCc1cn(Cc2cnc(C)nc2N)nn1 [Compound 22b]	56 ± 3		Insoluble					
COc1ccccc1C(=O)NCCCCc1cn(Cc2cnc(C)nc2N)nn1 [Compound 22c]	35 ± 3		Insoluble					
Cc1ncc(Cn2cc(CCC(=O)NO)nn2)c(N)n1 [Compound 24a]	73 ± 2	41 ± 3						
Cc1ncc(Cn2cc(CCCC(=O)NO)nn2)c(N)n1 [Compound 24b]	> 90	65 ± 2		78 ± 3		20 ± 2	2.02	42 ± 4
